{"source": "patent US20250084372A1", "about": "“IN VITRO DERIVATION OF GONADAL SOMATIC CELLS” (Conception Bisosciences, Inc., priority 2020, published 2025)", "key": {"[1]": {"test_system": "OSCs", "description": "To assay whether the gonadal somatic cells (such as the ovarian somatic cells—OSCs) generated from pluripotent stem cells are functional, expression of CYP19A1 was assayed by qPCR, and steroidogenesis was measured by ELISA for estradiol.\nA first intermediate cell population expressing markers representative of mesoderm, and a second intermediate cell population expressing markers representative of intermediate mesoderm, and the OSCs were generated according to the protocols described in Example 6."}, "[2]": {"test_system": "ovarian somatic cells (OSCs)", "assay": "RA concentration and exposure gradient during OSC induction, FOXL2 and KRT19 staining", "details": "10-step gradient 0 μM to 10 μM"}, "[3]": {"test_system": "second intermediate cell population (LHX1, PAX2, WT1, RUNX1)", "assay": "Intermediate mesoderm marker expression in second intermediate cell population", "format": "cell-based, human", "details": "increasing concentration; for expression of intermediate mesoderm markers WT1 and RUNX1: CHIR 0.5, 1 or 2 μM, RA or TTNPB 0, 0.1, 0.5 or 1 μM", "description": "The cell suspension was centrifuged at 1200 RPM for 5 min and the supernatant was discarded. The centrifuged cells were resuspended in 1 ml of GK2 medium and the cells were counted. […] The plates were cultured for 24 hours, and then 80% of the media was replaced with fresh IM-induction media without the ROCK inhibitor. 80% of the media was again replaced every other day until the cells became confluent (about 5-6 days). Once the cells were confluent, the cells were passaged to fresh fibronectin-coated 24-well plates, with at least 50,000 cells per well after passage (25k/cm^2)."}, "[4]": {"test_system": "second intermediate cell population", "assay": "Induction of second intermediate (IM) cell population: survival and morphology, phase contrast", "format": "cell-based, human", "details": "5 days in IM-induction media, increasing concentration", "description": "The cell suspension was centrifuged at 1200 RPM for 5 min and the supernatant was discarded. The centrifuged cells were resuspended in 1 ml of GK2 medium and the cells were counted. About 720,000 cells (from 24 well plate: 30,000 cells per well) were added to 12 mL IM-induction medium (as prepared in Table 10, but without the ROCK inhibitor). 12 μL ROCK inhibitor Y-27632 (1000×) or 36 μL of CET (3:1000) (final concentration of CET in media: 50 nM Chroman1, 5 μM Emricasan, 0.7 μM Trans-ISRIB) was added to obtain 60,000 cells/mL. 500 μL of the solution was placed in each well of fibronectin coated 24-well plate (about 30,000 cells/well). The plates were cultured for 24 hours, and then 80% of the media was replaced with fresh IM-induction media without the ROCK inhibitor. 80% of the media was again replaced every other day until the cells became confluent (about 5-6 days). Once the cells were confluent, the cells were passaged to fresh fibronectin-coated 24-well plates, with at least 50,000 cells per well after passage (25k/cm^2). About 4-5 million second intermediate cells were produced per 24 well plate. […]"}, "[5]": {"test_system": "ovarian somatic cells (OSCs)", "assay": "OSC induction with different FGF family members, marker expression", "format": "cell-based, human", "details": "10 ng/mL FGF in granulosa double medium", "description": "Fibroblast growth factors (FGFs) are a large family of proteins that are important for signaling events in a wide variety of processes. […] Briefly, gonadal cells were induced in granulosa doublemedium comprising different FGFs, and the expression of bipotential gonadal markers as well as that of granulosa markers were measured in the resulting cells.\nThe replated cells from the second intermediate population were incubated in the granulosa double medium (also referred to as gonadal induction medium or OSC induction medium) according to Table 18, with the same concentration of either FGF2, 9, 10, 16, 17, 18 or 19. The expression of bipotential gonadal markers (WT1, LHX9, GADD45G and GATA4) as well as granulosa markers (FOXL2, NR1H4 and KITLG) were measured in the resulting cells."}, "[6]": {"test_system": "ovarian somatic cells (OSCs)", "assay": "Concentration titration of BMP4, follistatin and FGF2 in OSC induction, qPCR for GATA4 and FOXL2", "format": "cell-based, human", "details": "BMP4 20 ng/mL, follistatin removed", "description": "Various concentration titrations of BMP4, Follistatin and FGF were tested in OSC induction, and the resulting cells were examined for expression of bipotential gonadal markers as well as that of granulosa markers.\nThe OSCs were induced based on the protocols described in Example 6, but with various concentrations of BMP4. Follistatin and FGF tested.\nThe OSC induction conditions were first tested by varying the BMP4 concentration. […] The gene expression of resulting cells was tested by qPCR for bi-potential gonadal cell markers (GATA4) as well as for granulosa cell markers (FOXL2) (FIGS. 12A and 12B respectively). Expression of GATA4 increased with higher BMP4 concentration, and FOXL2 expression appeared to peak at 10 ng/ml of BMP4 under the conditions tested.\nFour different concentrations of follistatin were then tested in OSC induction, with the concentration of BMP4 kept constant at 20 ng/ml as previously described. The gene expression of resulting cells was tested by qPCR for bi-potential gonadal cell markers (GATA4) as well as for granulosa cell markers (FOXL2) (FIGS. 12C and 12D respectively). […] The generation of mature OSCs were also examined by FOXL2 expression. […] In subsequent experiments, OSC induction in the absence or at lower concentrations of follistatin was further explored. […]"}}}
{"compound": "C[C@]12CCC(=O)C[C@@H]1CC[C@@H]1[C@@H]2CC[C@]2(C)[C@@H](O)CC[C@@H]12", "note": "[dHT, dihydroxy-testosterone]", "values": [{"measurement": "estradiol levels in the media, 48 hrs compared to 24-hr incubation", "setting": "[1]; 50 ng/ml, 48 hrs", "result": "further increase"}, {"measurement": "estradiol levels in the media", "setting": "[1]; 24-hr incubation, higher concentration", "result": "increased"}]}
{"compound": "CC1=C(/C=C/C(C)=C/C=C/C(C)=C/C(=O)O)C(C)(C)CCC1", "note": "[RA, retinoic acid]", "values": [{"measurement": "RA concentration at which KRT19 staining peaked", "setting": "[2]", "result": "around 500 nM"}]}
{"compound": "Cc1c[nH]c(-c2cnc(NCCNc3ccc(C#N)cn3)nc2-c2ccc(Cl)cc2Cl)n1", "note": "[CHIR, CHIR99021]", "values": [{"measurement": "expression of intermediate mesoderm markers WT1 and RUNX1", "setting": "[3]", "result": "increased expression"}, {"measurement": "expression of intermediate mesoderm markers LHX1 and PAX2", "setting": "[3]; CHIR 1, 2 or 3 μM, RA 50 nM, 100 nM, 500 nM or 1 μM", "result": "increased expression"}]}
{"compound": "C/C(=C\\c1ccc(C(=O)O)cc1)c1ccc2c(c1)C(C)(C)CCC2(C)C", "note": "[TTNPB]", "values": [{"measurement": "cell survival and cellular morphology of second intermediate cell population", "setting": "[4]", "result": "increased cell survival and uniform cellular morphology"}, {"measurement": "expression of intermediate mesoderm markers WT1 and RUNX1", "setting": "[3]", "result": "increasing expression"}]}
{"compound": "FGF16: fibroblast growth factor family member", "values": [{"measurement": "expression of bipotential gonadal markers (WT1, LHX9, GADD45G, GATA4) compared to FGF2", "setting": "[5]", "result": "comparable or higher"}, {"measurement": "expression of granulosa markers (FOXL2, NR1H4, KITLG) compared to corresponding medium", "setting": "[5]", "result": "comparable"}]}
{"compound": "FGF2", "values": [{"measurement": "FGF2 concentration at which GATA4 and FOXL2 expression reach saturation", "setting": "[6]", "result": 20, "unit": "ng/mL"}]}
{"compound": "FGF19: fibroblast growth factor family member", "values": [{"measurement": "expression of bipotential gonadal markers (WT1, LHX9, GADD45G, GATA4) compared to FGF2", "setting": "[5]", "result": "comparable or higher"}, {"measurement": "expression of granulosa markers (FOXL2, NR1H4, KITLG) compared to corresponding medium", "setting": "[5]", "result": "comparable"}]}
